Results as given in article PMC6266305 (Nutrients, 2018).
Several values for one entry are separate records, joined by “and”; a condition that tells them apart may be missing. Equal entries are not always repeated. Entries after “also recorded” stand apart in the source; their conditions may differ. Where two headings read alike, the source gives them in different places.

Experiments:
[1] = In vitro digestion model: bioaccessibility of alperujo phenolic compounds added to a test meal (percentage found in the aqueous phase of the digesta); type: in vitro ADME; conditions: for recovery: pig
Description: The in vitro digestion was carried out as previously described. […] The mixture was dispersed with Ultra-Turrax® (Ika) and artificial saliva (2.5 mL, pH 7) was added to the mixture. The sample was incubated for 10 min at 37 °C in a shaking incubator. The pH of the gastric medium was adjusted to 4.00 ± 0.02 with 1 M HCl. Then, porcine pepsin (2 mL, 40 mg/mL in 0.1 M HCl) was added and the homogenate was incubated at 37 °C in a shaking incubator for 30 min simulating the gastric step. The pH of the mixture was raised to 6.00 ± 0.02 with 0.9 M NaHCO3 and 13 mL of a mixture of porcine bile extract (39.08 mg/mL) and pancreatin (2.08 mg/mL) in 0.1 M trisodium citrate (pH 6) were added. Samples were incubated in a shaking incubator at 37 °C for 30 min to complete the digestion process. The final mixture representing the digesta was centrifuged (2500 g for 1 h at 10 °C) to separate the aqueous fraction. […] All analyses were run in quadruplicate. Aliquots from salivary, gastric, and duodenal steps were frozen at −80 °C until use. […] After centrifugation (3560 g for 10 min at 4 °C), the lower phase was collected. The solid bottom was re-extracted with 0.3 mL of ethanol and vortexed for 10 min. The second ethanol phase recovered was pooled to the previously collected phase, and then dried using a Speed-Vac®. The dried extracts were dissolved in 200 µL of water. Apical media were directly injected. […] All samples were stored at −80 °C before analysis. All samples were analyzed by UHPLC-DAD-MS using an Acquity UPLC® system that was linked to both a diode-array detector and a Bruker Daltonics HCT Ultra Ion Traps mass spectrometer equipped with an Electron Spray Ionization (ESI) source operating in negative ion mode. The separation was performed on an Acquity C18 BEH column (50 × 2.1 mm i.d., 1.7 µm) kept at 35 °C. The solvents were (A) water/formic acid (99.5/0.5) and (B) acetonitrile. […] Along the three steps of the gradient, the flow rate was 0.30, 0.35, and 0.40 mL/min. […] Chromatograms were acquired at 280 nm. The spectroscopic detection was performed in the range 200–800 nm with a resolution of 1.2 nm.

Caco-2 TC7 cells = test: Uptake and apical-to-basolateral transport by Caco-2 TC7 cell monolayers of diluted aqueous fractions from in vitro digestions; type: in vitro ADME, human; conditions: for Recovery in the cytosolic compartment of the cells or in the basolateral media (crossing of Caco-2 monolayers, native form): 6-h incubation; for Decrease of amount in the apical media: 6-h incubation on cell monolayers; for FA at the basolateral side as percentage (CA equivalent) of the initial CA amount in the apical side: 6 h, FA is the CA metabolite; for Amount found in the cytosolic compartment of Caco-2 cells, percentage of the initial amount at the apical side: 6 h incubation; for Metabolism in the intestinal cells: Caco-2 cells, inferred from total recovery
Description: (§1) Caco-2 TC7 cells were grown in DMEM supplemented with 16% (v/v) fetal bovine serum, 1% (v/v) non-essential amino-acids, and 1% (v/v) antibiotics (complete medium), as previously described. Cells were then seeded at a density of 15 000 cells/well, grown on transwell membrane (six-well plate, […] polycarbonate membrane; Becton Dickinson) and incubated in humidified atmosphere of 5% CO2 and 95% air at 37 °C during 21 days to obtain confluent and differentiated cell monolayers.
(§2) The cytotoxicity on Caco-2 cells of the aqueous fractions from in vitro digestions was first assessed to determine the suitable dilution required before adding the aqueous fractions to the apical side of cell monolayers. […] To avoid any interference with DMEM or serum components, the aqueous fractions were diluted in HBSS. Caco-2 cells also received HBSS in both chambers 12 h before the experiments. At the beginning of each experiment, cells were rinsed twice with 1 mL of PBS. Then, 1 mL of diluted aqueous fraction was added to the apical side and 2 mL of HBSS were added at the basolateral side. After an incubation period (2, 4, or 6 h) at 37 °C, both apical and basolateral media were harvested. Cells were then rinsed twice with 1mL of PBS and scrapped in 0.5 mL of iced-cold PBS. All analyses were run in quadruplicate and samples were stored at −80 °C until further analysis.
(§3) Gallic acid was chosen as internal standard as it was not present in the extract. Phenolic compounds were extracted from salivary, gastric and duodenal samples as follows: 0.3 mL of ethanol and 0.2 mL of n-hexane were added to 0.2 mL of sample and the mixture was stirred for 10 min using a vortex blender at maximal speed. After centrifugation (3560 g for 10 min at 4 °C), the lower phase was collected. The solid bottom was re-extracted with 0.3 mL of ethanol and vortexed for 10 min. The second ethanol phase recovered was pooled to the previously collected phase, and then dried using a Speed-Vac®. The dried extracts were dissolved in 200 µL of water. Apical media were directly injected. To concentrate them, basolateral media (1900 µL) were dried using a Speed-Vac®, and the dried residues were dissolved into 80 µL of water. All samples were stored at −80 °C before analysis.
(§4) Following the procedure by Gallardo et al. (2016), 50 µL of internal standard were added to harvested cells (in 500 µL PBS). Samples were then sonicated for 10 min at room temperature and centrifuged (10,000 g for 10 min at 4 °C). Supernatants were collected and evaporated to dryness. The dried residues were dissolved in 50 µL of water and stored at −80 °C before analysis.
(§5) All samples were analyzed by UHPLC-DAD-MS using an Acquity UPLC® system that was linked to both a diode-array detector and a Bruker Daltonics HCT Ultra Ion Traps mass spectrometer equipped with an Electron Spray Ionization (ESI) source operating in negative ion mode. The separation was performed on an Acquity C18 BEH column (50 × 2.1 mm i.d., 1.7 µm) kept at 35 °C. The solvents were (A) water/formic acid (99.5/0.5) and (B) acetonitrile. The proportions of solvent B used were: 0–10 min: 1–20%, 10–12 min: 20–30%, 12–14 min: 30–100%. Along the three steps of the gradient, the flow rate was 0.30, 0.35, and 0.40 mL/min. The injection volume was 1 μL for digestion and apical medium samples, and 10 µL for cells and basolateral samples. Chromatograms were acquired at 280 nm. The spectroscopic detection was performed in the range 200–800 nm with a resolution of 1.2 nm. The concentrations of phenolic compounds Tyr, CA, and p-Cm were estimated from calibration curves (peak area vs. concentration) with R² values greater than 0.99 [26].
(§6) Results were expressed as means ± standard deviations. Differences between means were assessed using ANOVA followed by the post-hoc Tukey test for parametric data. P values under 0.05 were considered to be significant. […]

Caco-2 cells = test: Overall in vitro bioavailability: basolateral amount in Caco-2 cells relative to the initial amount in the test meal before in vitro digestion; type: in vitro ADME, human; conditions: mean ± SD (n = 4)
Description: The in vitro digestion was carried out as previously described. […] The mixture was dispersed with Ultra-Turrax® (Ika) and artificial saliva (2.5 mL, pH 7) was added to the mixture. The sample was incubated for 10 min at 37 °C in a shaking incubator. […] Then, porcine pepsin (2 mL, 40 mg/mL in 0.1 M HCl) was added and the homogenate was incubated at 37 °C in a shaking incubator for 30 min simulating the gastric step. […] Samples were incubated in a shaking incubator at 37 °C for 30 min to complete the digestion process. The final mixture representing the digesta was centrifuged (2500 g for 1 h at 10 °C) to separate the aqueous fraction. […] The cytotoxicity on Caco-2 cells of the aqueous fractions from in vitro digestions was first assessed to determine the suitable dilution required before adding the aqueous fractions to the apical side of cell monolayers. […] To avoid any interference with DMEM or serum components, the aqueous fractions were diluted in HBSS. Caco-2 cells also received HBSS in both chambers 12 h before the experiments. At the beginning of each experiment, cells were rinsed twice with 1 mL of PBS. […] Cells were then rinsed twice with 1mL of PBS and scrapped in 0.5 mL of iced-cold PBS. All analyses were run in quadruplicate and samples were stored at −80 °C until further analysis. Results were expressed as means ± standard deviations. Differences between means were assessed using ANOVA followed by the post-hoc Tukey test for parametric data. […] Two parameters were assessed to express the bioavailability: a) the ratio between the mass of phenolic compounds recovered at the basolateral side and the initial mass added to the apical side, b) the ratio between the mass of phenolic compounds recovered at the basolateral side and the initial mass added to the meal.

[2] = parameters: method as in PMID 27355793; conditions: Tyr from olives; cited from earlier work
[3] = Uptake and apical-to-basolateral transport by Caco-2 TC7 cell monolayers of diluted aqueous fractions from in vitro digestions; type: in vitro ADME, human; conditions: human; for recovery at 6 h: Caco-2, 6 h; for Basolateral amount as percentage of initial apical amount (Caco-2 transport): whether from alperujo or alperujo-CD, read-out: Bioavailability (basolateral amount compared with initial apical amount)
Description: as §1, §2, §3, §4, §5, §6

[4] = parameters: method as in PMID 21494673; conditions: cited from earlier work
[5] = pH 6, in vitro digestion with test meal, average of alperujo and alperujo-CD, mean ± SD, read-out: Bioaccessibility (recovery in the final aqueous phase at the duodenal step)
[6] = pH 6, in vitro digestion, relative to the initial quantity, read-out: Recovery in the digesta
[7] = from alperujo-CD, mean ± SD (n = 4), read-out: Bioavailability in Caco-2 cells (recovery on the basolateral side) as percentage of initial apical amount
[8] = from alperujo, mean ± SD (n = 4), read-out: Bioavailability in Caco-2 cells (recovery on the basolateral side) as percentage of initial apical amount
[9] = read-out: Total recovery in the three compartments (apical, basolateral, cells)

| Molecule | recovery [1, 5] [%] | Recovery in the cytosolic compartment of the cells or in the basolateral media (crossing of Caco-2 monolayers, native form) (Caco-2 TC7 cells) | Decrease of amount in the apical media (Caco-2 TC7 cells; from alperujo) | recovery [1, 6] [%] | Bioavailability in Caco-2 cells as percentage of initial amount in the test meal before in vitro digestion (bioaccessibility × absorption by Caco-2 cells) (Caco-2 cells; from alperujo-CD) | Bioavailability in Caco-2 cells as percentage of initial amount in the test meal before in vitro digestion (bioaccessibility × absorption by Caco-2 cells) (Caco-2 cells; from alperujo) | Amount found in the cytosolic compartment of Caco-2 cells, percentage of the initial amount at the apical side (Caco-2 TC7 cells; from alperujo) [%] | Amount found in the cytosolic compartment of Caco-2 cells, percentage of the initial amount at the apical side (Caco-2 TC7 cells; from alperujo-CD) [%] | Metabolism in the intestinal cells (Caco-2 TC7 cells) | recovery at 6 h [3, 7] [%] | recovery at 6 h [3, 8] [%] | recovery at 6 h [3, 9] [%] | Basolateral amount as percentage of initial apical amount (Caco-2 transport) [3] [%] | further results |
| --- | --- | --- | --- | --- | --- | --- | --- | --- | --- | --- | --- | --- | --- | --- |
| O=C(O)/C=C/c1ccc(O)c(O)c1 [CA, caffeic acid] | ~64.9 | neither HT-Glc nor CA was recovered; also recorded: not recovered; also recorded: not found bioavailable in its native form | ~18% |  |  |  |  |  |  |  |  |  |  | Recovery in the cytosolic compartment of the cells or in the basolateral media (crossing of Caco-2 monolayers, native form) (Caco-2 TC7 cells; listed as caffeic): did not cross Caco-2 cell monolayers |
| COc1cc(/C=C/C(=O)O)ccc1O [FA, Ferulic acid] |  |  |  |  |  |  |  |  |  |  |  |  |  | Bioavailability of FA (CA metabolite) in Caco-2 cells as percentage of initial amount in the test meal before in vitro digestion (Caco-2 cells; from alperujo-CD): 10.0 ± 1.0 ^a %; Bioavailability of FA (CA metabolite) in Caco-2 cells as percentage of initial amount in the test meal before in vitro digestion (Caco-2 cells; from alperujo): 8.9 ± 0.5 ^a %; FA at the basolateral side as percentage (CA equivalent) of the initial CA amount in the apical side (Caco-2 TC7 cells; from alperujo-CD): 23.4 ± 2.2% and 23.4 ± 2.2 ^b %; FA at the basolateral side as percentage (CA equivalent) of the initial CA amount in the apical side (Caco-2 TC7 cells; from alperujo): 18.8 ± 1.0% and 18.8 ± 1.0 ^a %; Absorption efficiency of FA through cell monolayers, percentage of the initial CA amount (Caco-2 TC7 cells; alperujo and alperujo-CD): ~ 20% |
| OCCc1ccc(O)cc1 [Tyr, tyrosol] | 83.7 ± 2.4 |  |  | ≥ 100 | 16.8 ± 0.5 ^a % | 16.2 ± 0.6 ^a % | 1.6 ± 0.1 | 1.4 ± 0.1 | no metabolism occurred | 25.2 ± 1.3 | ~22.9 | ~100 | > 20 | Higher bioaccessibility of Tyr than HT [2]: 16%; Bioavailability in Caco-2 cells as percentage of initial amount in the test meal before in vitro digestion (bioaccessibility × absorption by Caco-2 cells) (Caco-2 cells; from alperujo-CD, listed as tyrosol): 16.8 ± 0.5%; Bioavailability in Caco-2 cells as percentage of initial amount in the test meal before in vitro digestion (bioaccessibility × absorption by Caco-2 cells) (Caco-2 cells; from alperujo, listed as tyrosol): 16.2 ± 0.6% |
| O=C1C[C@@H](c2ccc(O)cc2)Oc2cc(O)cc(O)c21 [naringenin] |  |  |  |  |  |  |  |  |  |  |  |  |  | Improvement of absorption through the gut epithelium by hydroxypropyl-β-CD [4]: 11 fold |
| O=C(O)/C=C/c1ccc(O)cc1 [p-Cm, p-coumaric acid] | > 87.9 |  |  | ≥ 100 | 37.2 ± 3.2 ^a % | 32.0 ± 3.2 ^a % | 1.6 ± 0.1 | 1.8 ± 0.2 | no metabolism occurred | 48.7 ± 2 | 40.2 ± 4.1 | ~100 | > 40 | Higher bioaccessibility of p-Cm than CA ([1]; in vitro digestion, final aqueous phase): 25%; Bioavailability in Caco-2 cells as percentage of initial amount in the test meal before in vitro digestion (bioaccessibility × absorption by Caco-2 cells) (Caco-2 cells; from alperujo-CD, listed as p-coumaric acid): 37.2 ± 3.2%; Bioavailability in Caco-2 cells as percentage of initial amount in the test meal before in vitro digestion (bioaccessibility × absorption by Caco-2 cells) (Caco-2 cells; from alperujo, listed as p-coumaric acid): 32.0 ± 3.2%; Improvement of local absorption by β-CD (Caco-2 TC7 cells; alperujo-CD vs alperujo, p < 0.05): 8.5 ± 4.2% |
| hydroxytyrosol-O-glucoside [HT-Glc] |  | neither HT-Glc nor CA was recovered; also recorded: no HT-Glc was recovered | about 10% |  |  |  |  |  |  |  |  |  |  | Bioaccessibility (recovery in the final aqueous phase at the duodenal step) ([1]; in vitro digestion with test meal, average of alperujo and alperujo-CD, mean ± SD): 73.2 ± 4.5%; Recovery in the cytosolic compartment of the cells or in the basolateral media (crossing of Caco-2 monolayers, native form) (Caco-2 TC7 cells; listed as Hydroxytyrosol-O-glucoside): did not cross Caco-2 cell monolayers |
